Data published in the NIST ThermoML archive (doi:10.1016/j.tca.2012.10.024).
Numbers after ± are expanded uncertainties.

Assays:
[1] = relative permittivity at zero frequency (dimensionless); settings: 101.33 kPa, Liquid, Parallel plate capacitor
[2] = refractive index (Na D-line) (dimensionless); settings: 101.33 kPa, Liquid, Standard Abbe refractometry
[3] = 101.33 kPa, Liquid, Pycnometric method

relative permittivity at zero frequency ([1]; 293.15 K) | relative permittivity at zero frequency ([1]; 298.15 K) | relative permittivity at zero frequency ([1]; 303.15 K) | refractive index ([2]; 293.15 K) | refractive index ([2]; 298.15 K) | refractive index ([2]; 303.15 K) | mass density ([3]; 293.15 K) [kg/m3] | mass density ([3]; 298.15 K) [kg/m3] | mass density ([3]; 303.15 K) [kg/m3] | Structure (SMILES)
7.939 ± 0.48 | 7.816 ± 0.47 | 7.692 ± 0.46 | 1.4326 ± 0.0009 | 1.4306 ± 0.0009 | 1.4286 ± 0.0009 | 1011.06 ± 1.4 | 1007.07 ± 1.4 | 1002.49 ± 1.4 | COCCOCCOCCOCCOC [2,5,8,11,14-pentaoxapentadecane]
15.739 ± 0.94 | 15.158 ± 0.91 | 14.579 ± 0.88 | 1.41 ± 0.0008 | 1.4082 ± 0.0008 | 1.4061 ± 0.0008 |  |  |  | CCCCCO [pentan-1-ol]
1.968 ± 0.12 | 1.961 ± 0.12 | 1.954 ± 0.12 | 1.3976 ± 0.0008 | 1.3952 ± 0.0008 | 1.3929 ± 0.0008 |  |  |  | CCCCCCCC [octane]
